Test results: US10231979B2, “Modulation of inflammation using progesterone metabolites” (Indiana University Research and Technology Corporation, priority 2015, dated 2019)
Where “and” joins values, the source holds several entries; their conditions need not be identical. Equal values may be shown once. Read-outs that look alike come from different tables or passages of the source.

Tests used:
[1] = system: uterine horns from wild-type (WT) C57BL/6J female mice; assay: Spontaneous uterine contractility, isolated uterine horns in tissue organ bath; conditions: for Spontaneous contractile force compared with the vehicle control (in words) / Spontaneous uterine contraction frequency compared to vehicle control (in words) / Contractile Frequency/10 min (% of baseline), Drug / Contractile Force (% of baseline), Drug: maximal treatment dose; for Contractile Frequency/10 min (% of baseline), Drug / Contractile Force (% of baseline), Drug: spontaneous contractility; for Contractile Force (% of baseline), Drug: AUC as % of baseline AUC; for IC50: spontaneous, dose-response 10^-9 to 10^-6 mol/L
Procedure: (§1) FIGS. 2A & 2B are representative contraction tracings of uterine horns from wild-type (WT) C57BL/6J female mice. FIG. 2A: Uterine horns were isolated and suspended in a tissue organ bath at 0.5 g of tension. Once equilibrated, selected progestin treatments were added in successively increasing concentrations from 10^−9 to 10^−6 mol/L in 20-minute intervals to assess effect on spontaneous contractile activity (progesterone treatment, bottom panel). The contralateral horn from each mouse was treated with a matching ethanol vehicle (top panel). All contraction responses were measured and reported as the area under the contraction curve (AUC), normalized to the AUC of the spontaneous contraction pattern that preceded treatment. FIG. 2B: Treatment effect on oxytocin-induced contractility was assessed by exposing horns to selected progestin treatments (10^−6 mol/L), followed by increasing doses of oxytocin (Oxt) (1, 10, 50, and 100 nmol/L) in 10-minute intervals (bottom panel). The contralateral horn from each mouse was treated with a matching ethanol vehicle (top panel). Contraction responses were measured and reported as described above.
(§2) All progestins were solubilized in ethanol and then diluted in phosphate-buffered saline to the desired molar concentration. […] The concentration of ethanol decreased parallel to the progestin dose in order to minimize the effect of the solvent on uterine contractility.
(§3) Virgin nonpregnant wild-type C57BL/6J female mice (Jackson Labs, Bar Harbor, Me.) were obtained at 10 to 12 weeks of age and fed a standard diet. Mice were euthanized by an IACUC-approved protocol, and each of the 2 uterine horns were removed. A 1 cm×0.5 cm segment of the uterine horn was suspended using 4-0 silk suture between a stainless steel wire hook connected to a Radnoti force displacement transducer (Radnoti LLC, Monrovia, Calif.) and a glass hook inside an organ bath that served as an anchor. The bath was filled with modified Krebs buffer (118 mmol/L NaCl, […], 1.2 mmol/L MgSO4, 1.2 mmol/L KH2PO4, 2.5 mmol/L CaCl2, 25 mmol/L NaHCO3, and 11 mmol/L glucose, pH 7.4), maintained at 37° C., and constantly bubbled with a premixed gas consisting of 20% O2, 5% CO2, and balance N2. Uterine horns were equilibrated at 0.5 g of tension for approximately 30 minutes until a spontaneous contraction pattern was established.
A total of 60 mice were utilized to assess the effect of the selected treatments on uterine contractility, 30 in the spontaneous contraction group and 30 in the oxytocin-induced group. Six mice were in each progestin treatment group during both spontaneous and oxytocin-induced contractility arms of the study. To determine the nongenomic (acute) effect of the progestin treatments on spontaneous uterine contractility, a segment of uterine horn from each mouse was exposed to a single progestin (progesterone, 17-OHPC, 2α-OHP, 6β-OHP, or 16αOHP), while a segment of the contralateral horn was exposed to a matching dose of ethanol vehicle. After a spontaneous contraction pattern was achieved, the progestin treatment was added to the tissue organ bath in successively increasing concentrations from 10^−9 to 10^−6 mol/L in 20-minute intervals. At the end of the treatments, the tissue was washed in modified Krebs buffer and then exposed to KCl (60 mmol/L) to elicit a tetanic response and confirm tissue viability.
Uterine contraction responses were recorded using LabChart Pro (ADInstruments, Colorado Springs, Colo.) software as the force generated with time (g×min). Baseline uterine contractility was calculated as the area under the curve (AUC) for a 10-minute period of spontaneous contractions. The AUC of the uterine contractile response to each treatment (progestin or oxytocin) was determined and expressed as a percentage of the baseline AUC observed during spontaneous contraction. […]

[2] = system: THP-1 monocyte cells; assay: Flow cytometry of monocyte-derived macrophage population (PMA differentiation); format: cell-based; conditions: THP-1 pre-treated 24 hours, then PMA
Procedure: FIGS. 6A-6C depict flow cytometry of a monocyte-derived macrophage population pre-treated with progesterone metabolites. THP-1 monocyte cells were pre-treated with progesterone metabolites 16αOHP and 6β-OHP for 24 hours, then stimulated to differentiate to macrophages by exposure to PMA.
THP-1 monocyte cells were pre-treated with progesterone metabolites 16αOHP and 6β-OHP for 24 hours, then stimulated to differentiate to macrophages by exposure to phorbol 12-myristate 13-acetate (PMA).

[3] = system: THP-1 monocytes; assay: IL-6 production in THP-1 monocytes stimulated with LPS; format: cell-based; conditions: THP-1 monocytes pretreated, then LPS; versus positive control
Procedure: FIG. 9 is a graph depicting the effect of progesterone and progesterone metabolites (16αOHP and 6β-OHP) on inflammation in THP-1 monocytes stimulated with LPS.
In this Example, the effect of progesterone and progesterone metabolites (16αOHP and 6β-OHP) on inflammation in THP-1 monocytes stimulated with LPS was analyzed.

[4] = system: primary uterine smooth muscle cells (UtSMC); assay: IL-6 production in UtSMC stimulated with LPS; format: cell-based; conditions: for IL-6 / IL-6, % of positive control: UtSMC pre-treated, then LPS; for IL-6: LPS positive control 121.7 pg/mL; for IL-6, % of positive control: relative to DMSO+LPS positive control
Procedure: In this Example, the effect of progesterone metabolites 16αOHP and 6β-OHP on inflammation in primary uterine smooth muscle cells (UtSMC) was analyzed.
UtSMC were cultured in the presence of DMSO and one of the following: (1) progesterone; (2) […]; (3) 6β-OHP; and (4) 16αOHP. Lipopolysaccharide (LPS) was then added to the culture to stimulate an immune inflammatory reaction. Experiments were performed in triplicate.

[5] = system: uterine horns from wild-type (WT) C57BL/6J female mice; assay: Oxytocin-induced uterine contractility after progestin pretreatment, isolated uterine horns in tissue organ bath; conditions: for Oxytocin-induced contractile force compared to vehicle control (in words) / Oxytocin-induced contraction frequency compared to control (in words) / Contractile Force (% of baseline), Drug / Contractile Frequency/10 min (% of baseline), Drug: maximal oxytocin dose (100 nmol/L); for EC50: oxytocin-induced dose-response (1-100 nmol/L oxytocin) after progestin pretreatment 10^-6 mol/L; for Contractile Force (% of baseline), Drug / Contractile Frequency/10 min (% of baseline), Drug: oxytocin-induced, progestin pretreatment 10^-6 mol/L
Procedure: as §1, §2, §3
To determine the nongenomic effect of progestin treatments on oxytocin-induced uterine contractility, the uterine horns were pretreated with a single progestin at 10^−6 mol/L for 10 minutes after a spontaneous contractile pattern was established. The contralateral horn from the same mouse was treated with ethanol vehicle at a matching concentration. The uterine horns were subsequently exposed to increasing concentrations of oxytocin (1, 10, 50, and 100 nmol/L) in 10-minute intervals. At the end of the oxytocin treatments, the tissue was washed and then exposed to KCl (60 mmol/L) to elicit a tetanic response and confirm tissue viability.
Uterine contraction responses were recorded using LabChart Pro (ADInstruments, Colorado Springs, Colo.) software as the force generated with time (g×min). Baseline uterine contractility was calculated as the area under the curve (AUC) for a 10-minute period of spontaneous contractions. The AUC of the uterine contractile response to each treatment (progestin or oxytocin) was determined and expressed as a percentage of the baseline AUC observed during spontaneous contraction. […] To account for repeated measurements for individual muscle strips at increasing treatment doses, a repeated measures 2-way analysis of variance model was used to compare the dose-response curves. Each dose-response curve was fit by nonlinear regression and compared using an extra sum of squares F test. The mean max-fit response was compared between each progestin and vehicle control to determine maximum treatment efficacy. […]

[6] = system: primary uterine smooth muscle cells (UtSMC); assay: IL-6 production in UtSMC stimulated with TNF-α; format: cell-based
Source text: FIGS. 5A & 5B are graphs depicting the effect of progesterone metabolites 16αOHP and 6β-OHP on inflammation in primary uterine smooth muscle cells (UtSMC).

[7] = read-out: Contractile Force IC50
[8] = read-out: Contractile Frequency IC50
[9] = read-out: Contractile Force EC50
[10] = read-out: Contractile Frequency EC50

SMILES	Spontaneous contractile force compared with the vehicle control (in words) [1]	Spontaneous uterine contraction frequency compared to vehicle control (in words) [1]	Contractile Frequency/10 min (% of baseline), Drug [1]	Contractile Force (% of baseline), Drug [1]	IC50 [1, 7]	IC50 [1, 8]	IL-6 [4]	IL-6, % of positive control [4]	Oxytocin-induced contractile force compared to vehicle control (in words) [5]	Oxytocin-induced contraction frequency compared to control (in words) [5]	EC50 [5, 9]	EC50 [5, 10]	Contractile Force (% of baseline), Drug [5]	Contractile Frequency/10 min (% of baseline), Drug [5]	other results
CC(=O)[C@H]1[C@H](O)C[C@H]2[C@@H]3CCC4=CC(=O)CC[C@]4(C)[C@H]3CC[C@@]21C [16α-OHP, 4-pregnen-16α-ol-3,20-dione]	No significant difference	not significantly decreased	57% of baseline	37.2% of baseline	0.77 nM	0.74 nM	98.7 pg/mL	83%	no differences	decreased significantly	142 nM	8.46 nM	301.6% of baseline	216.9% of baseline	Macrophage population/phenotype compared to DMSO treated control (in words) [2]: decrease in the macrophage population/phenotype; Inflammatory response (IL-6 production) (in words) [3]: significantly decreased IL-6 production; IL-6 production (in words) ([4]; UtSMC stimulated with LPS): reduced IL-6 production; Effect on oxytocin-induced uterine contractility (in words) [5]: decreased; Contractile Frequency/10 min (% of baseline), Drug ([5]; listed as 16αOHP): 217 % of baseline; IL-6 production (in words) [6]: decreased IL-6 production
CC(=O)[C@H]1CC[C@H]2[C@@H]3CCC4=CC(=O)[C@H](O)C[C@]4(C)[C@H]3CC[C@]12C [2α-OHP, 4-pregnen-2α-ol-3,20-dione]	No significant difference	not significantly decreased	53.7% of baseline	37.9% of baseline	0.32 nM	0.55 nM	–	–	no differences	not	68.2 nM	646 nM	329.5% of baseline	168.9% of baseline	–
C[C@]12CC[C@@H]3c4ccc(O)cc4CC[C@H]3[C@@H]1CC[C@@H]2O [E2, reference compound]	–	–	–	–	–	–	126 pg/mL	103%	–	–	–	–	–	–	–
CCCCCC(=O)O[C@]1(C(C)=O)CC[C@H]2[C@@H]3CCC4=CC(=O)CC[C@]4(C)[C@H]3CC[C@@]21C [17-OHPC, 4-pregnen-17-ol-3,20-dione caproate, reference compound]	No significant difference	not significantly decreased	57.9% of baseline	50.4% of baseline	–	–	–	–	–	decreased significantly	–	–	218.4 % of baseline	130 % of baseline and 130.2% of baseline	IC50 ([1]; Mus musculus, read-out: Contractile Force IC50): 0.78 nM; IC50 ([1]; Mus musculus, read-out: Contractile Frequency IC50): 0.31 nM; EC50 ([5]; Mus musculus, read-out: Contractile Force EC50): 8.43 nM; EC50 ([5]; Mus musculus, read-out: Contractile Frequency EC50): 3.26 nM
